As a reminder, the melting point is the temperature, or range, at which the solid turns liquid.

This note sets out measurements from patent US6420423B1 (priority 1995, dated 2002).

Data set [1] concerns Phytophthora infestans. Format: in vivo. Conditions: 20 ppm of the active substance; test a) or b) not distinguished.
Data set [2] relates to Plasmopara viticola. Conditions: 20 ppm of the active substance, vines.

With `CCO/N=C(/C(C)=NOCc1ccccc1C(=NOC)C(=O)OC)c1ccc(OCc2cccc(C(F)(F)F)c2)cc1`, the melting point is 68 to 70 °C.

As to `CCCCOc1ccc(C(=NOC)C(C)=NOCc2ccccc2C(=COC)C(=O)OC)cc1` (mixture of isomers) [Compound 1.33], in data set [1], the suppression of infestation result was “completely suppressed”. In addition, the curative action entry in data set [2] is “complete curative action”.

For the compound `COC=C(C(=O)OC)c1ccccc1CON=C(C)C(=NOC)c1ccc(OCC2CC2(Cl)Cl)c(F)c1` (single isomer, unassigned) [Compound 1.4], the suppression of infestation entry in data set [1] was “completely suppressed”. Also, in data set [2], the curative action result was “complete curative action”.

`COC=C(C(=O)OC)c1ccccc1CON=C(C)C(=NOC)c1ccc(OCC2CC2(Cl)Cl)c(Cl)c1` (single isomer, unassigned) [Compound 1.19]: the suppression of infestation result in data set [1] is given as “completely suppressed”.

`COC=C(C(=O)OC)c1ccccc1CON=C(C)C(=NOC)c1ccc(OCC2CC2(Cl)Cl)c(Cl)c1` (single isomer, unassigned) [Compound 1.20]: the suppression of infestation result in data set [1] was “completely suppressed”.

`CCC(C)Oc1ccc(C(=NOC)C(C)=NOCc2ccccc2C(=COC)C(=O)OC)cc1` (single isomer, unassigned) [Compound 1.29]: the curative action entry in data set [2] is on record as “complete curative action”.

Regarding `CCC(C)Oc1ccc(C(=NOC)C(C)=NOCc2ccccc2C(=COC)C(=O)OC)cc1` (single isomer, unassigned) [Compound 1.30], the suppression of infestation entry in data set [1] is “completely suppressed”. For the same compound, in data set [2], the curative action result is “complete curative action”.

Consider `COC=C(C(=O)OC)c1ccccc1CON=C(C)C(=NOC)c1cc(F)ccc1C` (single isomer, unassigned) [Compound 1.52], for which, in data set [2], the curative action result was “complete curative action”.

As to `CCCOc1ccc(C(=NOC)C(C)=NOCc2ccccc2C(=COC)C(=O)OC)c(F)c1` (single isomer, unassigned) [Compound 1.63B], the curative action result in data set [2] was “complete curative action”.

Take `CCCCOc1ccc(C(=NOC)C(C)=NOCc2ccccc2C(=COC)C(=O)OC)c(F)c1` (single isomer, unassigned) [Compound 1.71A]: the curative action result in data set [2] is on record as “complete curative action”.

In the case of `CCCCOc1ccc(C(=NOC)C(C)=NOCc2ccccc2C(=COC)C(=O)OC)c(F)c1` (single isomer, unassigned) [Compound 1.71B], in data set [2], the curative action entry is recorded as “complete curative action”.

`COC=C(C(=O)OC)c1ccccc1CON=C(C)C(=NOC)c1ccc(OC(C)C)cc1F` (single isomer, unassigned) [Compound 1.73A]: the curative action entry in data set [2] is listed as “complete curative action”.

On to `COC=C(C(=O)OC)c1ccccc1CON=C(C)C(=NOC)c1ccc(OC(C)C)cc1F` (single isomer, unassigned) [Compound 1.73B], for which the curative action result in data set [2] is reported as “complete curative action”.

With `CCC(C)Oc1ccc(C(=NOC)C(C)=NOCc2ccccc2C(=COC)C(=O)OC)c(F)c1` (single isomer, unassigned) [Compound 1.75A], the suppression of infestation result in data set [1] is “completely suppressed”.

For the compound `COC=C(C(=O)OC)c1ccccc1CON=C(C)C(=NOC)c1ccc(OC)cc1C` (single isomer, unassigned) [Compound 1.78], in data set [2], the curative action result is reported as “complete curative action”.

Consider `COC=C(C(=O)OC)c1ccccc1CON=C(C)C(=NOC)c1ccc(OCC2CC2(Cl)Cl)c(F)c1` (stereo not drawn) [Compound 1.3, (2-{2-[4-(2,2-Dichloro-cyclopropylmethoxy)-3-fluoro-phenyl]-2-methoxyimino-1-methyl-ethylideneaminooxymethyl}phenyl)-3-methoxy-acrylic acid methyl ester], for which, in data set [1], the suppression of infestation entry is reported as “completely suppressed”. For the same compound, the curative action result in data set [2] is reported as “complete curative action”.

As to `COC=C(C(=O)OC)c1ccccc1CON=C(C)C(=NOC)c1cc(F)c(OCC2CC2(Cl)Cl)cc1F` (stereo not drawn) [Compound 1.13, (2-{2-[4-(2,2-Dichloro-cyclopropylmethoxy)-2,5-difluoro-phenyl]-2-methoxyimino-1-methyl-ethylideneaminooxymethyl}-phenyl)-3-methoxy-acrylic acid methyl ester], the suppression of infestation result in data set [1] is given as “completely suppressed”. The curative action entry in data set [2] is “complete curative action”.

With `COC=C(C(=O)OC)c1ccccc1CON=C(C)C(=NOC)c1ccc(OCC(C)C)cc1` [Compound 1.31, {2-[2-(4-Isobutoxy-phenyl)-2-methoxyimino-1-methyl-ethylideneaminooxymethyl]-phenyl}-3-methoxy-acrylic acid methyl ester], the suppression of infestation entry in data set [1] is on record as “completely suppressed”. Further, the curative action entry in data set [2] was “complete curative action”.

On to `CCC(C)Oc1ccc(C(=NOC)C(C)=NOCc2ccccc2C(=NOC)C(=O)OC)cc1` (stereo not drawn) [Compound 2.21], for which the curative action result in data set [2] is “complete curative action”.

Take `CON=C(C(C)=NOCc1ccccc1C(=NOC)C(=O)OC)c1ccc(OCC(C)C)cc1` [Compound 2.22]: the curative action entry in data set [2] was “complete curative action”.

As to `CON=C(C(C)=NOCc1ccccc1C(=NOC)C(=O)OC)c1ccc(Oc2cccc(Br)c2)cc1` [Compound 2.25], in data set [2], the curative action entry was “complete curative action”.

`CON=C(C(C)=NOCc1ccccc1C(=NOC)C(=O)OC)c1ccc(Oc2ccc(C)cc2)cc1` [Compound 2.27]: the suppression of infestation entry in data set [1] was “completely suppressed”. Further, the curative action entry in data set [2] is “complete curative action”.

Take `CON=C(C(C)=NOCc1ccccc1C(=NOC)C(=O)OC)c1cccc(Oc2cccc(F)c2)c1` [Compound 2.32]: in data set [1], the suppression of infestation result is listed as “completely suppressed”.

Turning to `CON=C(C(C)=NOCc1ccccc1C(=NOC)C(=O)OC)c1ccc(OC[Si](C)(C)C)cc1` [Compound 2.33], the curative action result in data set [2] is given as “complete curative action”.

In the case of `CCCOc1ccc(C(=NOC)C(C)=NOCc2ccccc2C(=NOC)C(=O)OC)c(F)c1` [Compound 2.45, 2-Methoxyimino-(2-{2-methoxyimino-1-methyl-2-[2-fluoro-4-n-propoxy-phenyl]-ethylideneaminooxymethyl}-phenyl)-acetic acid methyl ester], the curative action result in data set [2] was “complete curative action”.

Turning to `CCOc1ccc(C(=NOC)C(C)=NOCc2ccccc2C(=NOC)C(=O)OC)c(F)c1` [Compound 2.49, 2-Methoxyimino-(2-{2-methoxyimino-1-methyl-2-[2-fluoro-4-ethoxy-phenyl]-ethylideneaminooxymethyl}-phenyl)-acetic acid methyl ester], the curative action result in data set [2] was “complete curative action”.

As to `CCC(C)Oc1ccc(C(=NOC)C(C)=NOCc2ccccc2C(=NOC)C(=O)OC)c(F)c1` (stereo not drawn) [Compound 2.55], the suppression of infestation entry in data set [1] is “completely suppressed”. In data set [2], the curative action result is recorded as “complete curative action”.

In the case of `CON=C(C(C)=NOCc1ccccc1C(=NOC)C(=O)OC)c1ccc(OC)cc1C` [Compound 2.58], the suppression of infestation entry in data set [1] is reported as “completely suppressed”. Moreover, the curative action entry in data set [2] is recorded as “complete curative action”.

Turning to `CCC(C)Oc1ccc(C(=NOC)C(C)=NOCc2ccccc2C(=NOC)C(=O)NC)cc1` (stereo not drawn) [Compound 3.21], the curative action result in data set [2] was “complete curative action”.

Consider `CNC(=O)C(=NOC)c1ccccc1CON=C(C)C(=NOC)c1ccc(OCC(F)(F)F)cc1` [Compound 3.43], for which, in data set [2], the curative action result is recorded as “complete curative action”.

Regarding `CCCOc1ccc(C(=NOC)C(C)=NOCc2ccccc2C(=NOC)C(=O)NC)c(F)c1` [Compound 3.46, 2-Methoxyimino-2-(2-{2-methoxyimino-1-methyl-2-[2-fluoro-4-n-propoxy-phenyl]-ethylideneaminooxymethyl}-phenyl)-N-methyl-acetamide], the curative action entry in data set [2] is recorded as “complete curative action”.

`CCC(C)Oc1ccc(C(=NOC)C(C)=NOCc2ccccc2C(=NOC)C(=O)NC)c(F)c1` (stereo not drawn) [Compound 3.56]: the suppression of infestation result in data set [1] is recorded as “completely suppressed”. The curative action entry in data set [2] was “complete curative action”.

As to `CCOc1ccc(C(=NOC)C(C)=NOCc2ccccc2C(=NOC)C(=O)NC)c(C)c1` [Compound 3.60, 2-Methoxyimino-2-(2-{2-methoxyimino-1-methyl-2-[4-ethoxy-2-methyl-phenyl]-ethylideneaminooxymethyl}-phenyl)-N-methyl-acetamide], the suppression of infestation result in data set [1] is reported as “completely suppressed”.

Regarding `COC=C(C(=O)OC)c1ccccc1CON=C(C)C(=NOCC=C(Cl)Cl)c1ccc(OC)cc1` [Compound 4.3], the suppression of infestation result in data set [1] was “completely suppressed”. Besides, the curative action entry in data set [2] is “complete curative action”.

Consider `CCCOc1ccc(C(=NOCC)C(C)=NOCc2ccccc2C(=COC)C(=O)OC)cc1` [Compound 4.57], for which the suppression of infestation entry in data set [1] is reported as “completely suppressed”. Besides, in data set [2], the curative action entry was “complete curative action”.

As to `CCCOc1ccc(C(=NOCC)C(C)=NOCc2ccccc2C(=NOC)C(=O)OC)cc1` [Compound 4.58], the curative action entry in data set [2] was “complete curative action”.

As to `CCCON=C(C(C)=NOCc1ccccc1C(=COC)C(=O)OC)c1ccc(OCCC)cc1` [Compound 4.60], the suppression of infestation entry in data set [1] was “completely suppressed”. Further, in data set [2], the curative action result is “complete curative action”.

In the case of `C#CCON=C(C(C)=NOCc1ccccc1C(=NOC)C(=O)NC)c1ccc(OCCC)cc1` [Compound 4.65], in data set [2], the curative action result was “complete curative action”.
